# In patent US20260138961A1, “MODULATORS OF MITOCHONDRIAL DNA REPLICATION” (Pretzel Therapeutics, Inc., priority 2022, published 2026):
# Biological target: T1, POLγA:G848S (Homo sapiens, UniProt P54098, G848S)
# T1 sequence (P54098 1-1239 G848S): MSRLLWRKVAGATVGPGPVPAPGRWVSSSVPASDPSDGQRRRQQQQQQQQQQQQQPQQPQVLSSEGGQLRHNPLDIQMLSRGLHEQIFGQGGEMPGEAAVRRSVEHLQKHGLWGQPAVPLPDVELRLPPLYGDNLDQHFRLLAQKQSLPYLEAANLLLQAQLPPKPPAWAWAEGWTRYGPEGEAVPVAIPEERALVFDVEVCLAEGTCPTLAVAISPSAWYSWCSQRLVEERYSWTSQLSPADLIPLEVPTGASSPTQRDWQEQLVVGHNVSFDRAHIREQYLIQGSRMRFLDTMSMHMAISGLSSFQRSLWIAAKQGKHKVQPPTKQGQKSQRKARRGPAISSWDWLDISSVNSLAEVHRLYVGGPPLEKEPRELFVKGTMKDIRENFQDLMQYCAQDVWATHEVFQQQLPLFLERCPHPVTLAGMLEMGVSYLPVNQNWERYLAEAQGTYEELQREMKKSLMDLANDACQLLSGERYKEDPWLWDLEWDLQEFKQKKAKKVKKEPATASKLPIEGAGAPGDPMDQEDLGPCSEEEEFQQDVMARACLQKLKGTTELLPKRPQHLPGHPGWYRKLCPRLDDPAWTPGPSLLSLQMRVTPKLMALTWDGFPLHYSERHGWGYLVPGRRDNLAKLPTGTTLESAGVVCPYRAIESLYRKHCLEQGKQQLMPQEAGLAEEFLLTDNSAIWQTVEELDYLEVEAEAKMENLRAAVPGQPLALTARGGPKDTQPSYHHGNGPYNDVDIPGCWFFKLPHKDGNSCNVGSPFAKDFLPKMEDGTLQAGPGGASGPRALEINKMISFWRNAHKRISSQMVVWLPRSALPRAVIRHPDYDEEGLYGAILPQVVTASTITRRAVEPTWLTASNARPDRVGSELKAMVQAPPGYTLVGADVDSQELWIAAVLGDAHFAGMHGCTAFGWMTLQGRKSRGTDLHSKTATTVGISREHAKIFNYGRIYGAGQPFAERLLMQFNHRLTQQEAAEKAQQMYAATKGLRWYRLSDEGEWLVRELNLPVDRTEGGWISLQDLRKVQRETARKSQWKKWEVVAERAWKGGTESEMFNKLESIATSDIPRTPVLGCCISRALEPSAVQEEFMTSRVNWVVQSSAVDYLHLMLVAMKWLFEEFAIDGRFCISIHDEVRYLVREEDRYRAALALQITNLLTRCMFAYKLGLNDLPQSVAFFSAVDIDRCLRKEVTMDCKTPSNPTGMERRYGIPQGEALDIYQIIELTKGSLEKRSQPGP
# T1 sequence (Q9UHN1 1-485 partner): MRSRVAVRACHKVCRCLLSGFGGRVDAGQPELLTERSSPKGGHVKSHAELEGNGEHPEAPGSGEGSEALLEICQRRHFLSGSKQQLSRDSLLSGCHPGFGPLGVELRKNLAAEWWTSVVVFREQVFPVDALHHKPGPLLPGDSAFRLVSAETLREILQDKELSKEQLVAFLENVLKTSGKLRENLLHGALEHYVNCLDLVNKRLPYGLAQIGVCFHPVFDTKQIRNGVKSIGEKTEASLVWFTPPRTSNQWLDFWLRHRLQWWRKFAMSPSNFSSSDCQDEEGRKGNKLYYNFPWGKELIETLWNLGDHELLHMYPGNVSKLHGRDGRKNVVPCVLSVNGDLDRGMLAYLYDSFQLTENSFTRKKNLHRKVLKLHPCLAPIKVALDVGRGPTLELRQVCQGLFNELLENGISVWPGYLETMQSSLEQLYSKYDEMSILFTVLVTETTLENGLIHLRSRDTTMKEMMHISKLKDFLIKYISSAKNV
# Experiment: DNA polymerization assay, POLγA:G848S mutant
# Assay type: biochemical
# Details: stimulation of polymerase activity, primed M13mp18 ssDNA, 37° C. 2 hours; read-out: G848S AC50
row,AC50 [µM],SMILES
1,> 100,"Cc1cc2c(NS(=O)(=O)c3cc(C)c(Cl)cc3C)cccc2[nH]1 [Example 37, 4-chloro-2,5-dimethyl-N-(2-methyl-1H-indol-4-yl)benzenesulfonamide]"
2,> 100,"Cc1ccc(C)c(S(=O)(=O)Nc2cncc(C(=O)N3CCOCC3)c2)c1 [Example 38, 2,5-dimethyl-N-(5-(morpholine-4-carbonyl)pyridin-3-yl)benzenesulfonamide]"
3,> 100,"Cc1ccc(C)c(S(=O)(=O)Nc2ccc(C(=O)N[C@@H](C)C3CC3)cc2)c1 [Example 39, (S)-N-(1-cyclopropylethyl)-4-((2,5-dimethylphenyl)sulfonamido)benzamide]"
4,> 100,"Cc1ccc(C)c(S(=O)(=O)Nc2ccc(C(=O)NCC3CC3)cc2)c1 [Example 40, N-(cyclopropylmethyl)-4-((2,5-dimethylphenyl)sulfonamido)benzamide]"
5,21,"Cc1ccc(C)c(S(=O)(=O)Nc2cccc(C(=O)N3CCSCC3C(N)=O)c2)c1 (centres unmarked) [Example 41, 4-(3-((2,5-dimethylphenyl)sulfonamido)benzoyl) thiomorpholine-3-carboxamide]"
6,> 100,"Cc1cc(NS(=O)(=O)c2cc(C)ccc2C)cc(C(=O)N2CCCC[C@H]2C)c1 [Example 42, (R)-2,5-dimethyl-N-(3-methyl-5-(2-methylpiperidine-1-carbonyl)phenyl)benzenesulfonamide]"
7,51,"Cc1ccc(C)c(S(=O)(=O)Nc2ccc(C(=O)N3CCCC[C@H]3C)s2)c1 [Example 43, (R)-2,5-dimethyl-N-(5-(2-methylpiperidine-1-carbonyl)thiopheN-2-yl)benzenesulfonamide]"
8,27,"Cc1cc(S(=O)(=O)Nc2cccc(C(N)=O)c2)c(C)cc1Cl [Example 44, 3-((4-chloro-2,5-dimethylphenyl)sulfonamido)benzamide]"
9,91,"Cc1cc(S(=O)(=O)Nc2cccc(C(=O)N3CCNCC3)c2)c(C)cc1Cl [Example 46, 4-chloro-2,5-dimethyl-N-(3-(piperazine-1-carbonyl)phenyl)benzenesulfonamide]"
10,39,"COCCNC(=O)c1cccc(NS(=O)(=O)c2cc(C)c(Cl)cc2C)c1 [Example 47, 3-((4-chloro-2,5-dimethylphenyl)sulfonamido)-N-(2-methoxyethyl)benzamide]"
11,13,"Cc1cc(S(=O)(=O)Nc2cccc(C(=O)N[C@H](C)c3ccccc3)c2)c(C)cc1Cl [Example 48, (R)-3-((4-chloro-2,5-dimethylphenyl)sulfonamido)-N-(1-phenylethyl)benzamide]"
12,14,"Cc1cc(S(=O)(=O)Nc2ccc(F)c(C(=O)N3CCC[C@H]3C)c2)c(C)cc1Cl [Example 49, (R)-4-chloro-N-(4-fluoro-3-(2-methylpyrrolidine-1-carbonyl)phenyl)-2,5-dimethylbenzenesulfonamide]"
13,11,"Cc1cc(S(=O)(=O)Nc2cc(C(=O)N3CCC[C@H]3C)ccc2F)c(C)cc1Cl [Example 50, (R)-4-chloro-N-(2-fluoro-5-(2-methylpyrrolidine-1-carbonyl)phenyl)-2,5-dimethylbenzenesulfonamide]"
14,44,"Cc1cc(S(=O)(=O)Nc2cccc(C(=O)N[C@H](C)CO)c2)c(C)cc1Cl [Example 51, (R)-3-((4-chloro-2,5-dimethylphenyl)sulfonamido)-N-(1-hydroxypropan-2-yl)benzamide]"
15,> 100,"Cc1cc(S(=O)(=O)Nc2cccc(C(=O)N3CCN(C)CC3)c2)c(C)cc1Cl [Example 52, 4-chloro-2,5-dimethyl-N-(3-(4-methylpiperazine-1-carbonyl)phenyl)benzenesulfonamide]"
16,63,"Cc1cc(S(=O)(=O)Nc2cccc(C(=O)NCCO)c2)c(C)cc1Cl [Example 53, 3-((4-chloro-2,5-dimethylphenyl)sulfonamido)-N-(2-hydroxyethyl)benzamide]"

row,AC50 [µM],SMILES
1,21,"Cc1cc(S(=O)(=O)Nc2cccc(C(=O)N3CCN(C)C[C@H]3C)c2)c(C)cc1Cl [Example 54, (R)-4-chloro-N-(3-(2,4-dimethylpiperazine-1-carbonyl)phenyl)-2,5-dimethylbenzenesulfonamide]"
2,> 100,"Cc1cc(S(=O)(=O)Nc2cccc(C(=O)N3CCN(CCO)CC3)c2)c(C)cc1Cl [Example 55, 4-chloro-N-(3-(4-(2-hydroxyethyl)piperazine-1-carbonyl)phenyl)-2,5-dimethylbenzenesulfonamide]"
3,56,"Cc1cc(S(=O)(=O)Nc2cccc(C(=O)N(C)CCO)c2)c(C)cc1Cl [Example 56, 3-((4-chloro-2,5-dimethylphenyl)sulfonamido)-N-(2-hydoxyethyl)-N-methylbenzamide]"
4,> 100,"Cc1cc(S(=O)(=O)Nc2cccc(C(=O)N3CCC[C@H]3C)c2F)c(C)cc1Cl [Example 57, (R)-4-chloro-N-(2-fluoro-3-(2-methylpyrrolidine-1-carbonyl)phenyl)-2,5-dimethylbenzenesulfonamide]"
5,46,"COCCN(C)C(=O)c1cccc(NS(=O)(=O)c2cc(C)c(Cl)cc2C)c1 [Example 58, 3-((4-chloro-2,5-dimethylphenyl)sulfonamido)-N-(2-methoxyethyl)-N-methylbenzamide]"
6,> 100,"O=S(=O)(Nc1cccc(-c2nccs2)c1)c1ccc(Cl)cc1 [Example 59, 4-chloro-N-(3-(thiazol-2-yl)phenyl)benzenesulfonamide]"
7,2,Cc1ccc(C)c(S(=O)(=O)Nc2cccc(-c3nccs3)c2)c1 [Example 60]
8,> 100,"Cc1cc(S(=O)(=O)Nc2cc(-c3nccs3)ccc2F)c(C)cc1Cl [Example 61, 4-chloro-N-(2-fluoro-5-(thiazol-2-yl)phenyl)-2,5-dimethylbenzenesulfonamide]"
9,> 100,"Cc1cc(S(=O)(=O)Nc2cc(F)cc(-c3nccs3)c2)c(C)cc1Cl [Example 62, 4-chloro-N-(3-fluoro-5-(thiazol-2-yl)phenyl)-2,5-dimethylbenzenesulfonamide]"
10,> 100,"Cc1cc(S(=O)(=O)Nc2ccc(F)c(-c3nccs3)c2)c(C)cc1Cl [Example 63, 4-chloro-N-(4-fluoro-3-(thiazol-2-yl)phenyl)-2,5-dimethylbenzenesulfonamide]"
11,1,"Cc1cc(S(=O)(=O)Nc2cccc(-c3cc(C4CC4)[nH]n3)c2)c(C)cc1Cl [Example 64, 4-chloro-N-(3-(5-cyclopropyl-1H-pyrazol-3-yl)phenyl)-2,5-dimethylbenzenesulfonamide]"
12,12,"CC[C@@H]1CCCN1C(=O)c1cccc(NS(=O)(=O)c2cc(C)c(Cl)cc2C)c1 [Example 65, (R)-4-chloro-N-(3-(2-ethylpyrrolidine-1-carbonyl)phenyl)-2,5-dimethylbenzenesulfonamide]"
13,1,"Cc1cc(-c2cccc(NS(=O)(=O)c3cc(C)c(Cl)cc3C)c2)n[nH]1 [Example 66, 4-chloro-2,5-dimethyl-N-(3-(5-methyl-1H-pyrazol-3-yl)phenyl)benzenesulfonamide]"
14,14,"Cc1cc(S(=O)(=O)Nc2ccc3ccn(C(C)C)c3c2)c(C)cc1Cl [Example 69, 4-chloro-N-(1-isopropyl-1H-indol-6-yl)-2,5-dimethylbenzenesulfonamide]"
15,49,"Cc1nc2ccc(NS(=O)(=O)c3cc(C)c(Cl)cc3C)cc2o1 [Example 70, 4-chloro-2,5-dimethyl-N-(2-methylbenzo[d]oxazol-6-yl)benzenesulfonamide]"
16,> 100,"Cc1nc2cc(NS(=O)(=O)c3cc(C)c(Cl)cc3C)ccc2s1 [Example 71, 4-chloro-2,5-dimethyl-N-(2-methylbenzo[d]thiazol-5-yl)benzenesulfonamide]"
